Assay: xn = mol fraction of the nth substance listed
Conditions: 101 kPa, Liquid, Pycnometric method

C=CC(=O)OCCCC [butyl 2-propenoate] + Cc1ccccc1
mass density [kg/m3]
Conditions	288.15 K	293.15 K	298.15 K	303.15 K	308.15 K	313.15 K	318.15 K
x1 = 0.0704	875.4	870.63	865.86	861.09	856.32	851.55	846.79
x1 = 0.1402	878.72	873.92	869.12	864.32	859.52	854.72	849.92
x1 = 0.2054	881.63	876.8	871.97	867.14	862.31	857.48	852.65
x1 = 0.2799	884.72	879.86	875	870.15	865.31	860.47	855.63
x1 = 0.3604	887.81	882.94	878.07	873.2	868.34	863.48	858.62
x1 = 0.4338	890.4	885.52	880.64	875.77	870.9	866.03	861.16
x1 = 0.5098	892.88	888	883.12	878.24	873.36	868.48	863.6
x1 = 0.5836	895.08	890.19	885.31	880.43	875.55	870.67	865.79
x1 = 0.6584	897.1	892.22	887.34	882.46	877.58	872.7	867.82
x1 = 0.7198	898.6	893.73	888.86	883.99	879.12	874.25	869.38
x1 = 0.7912	900.18	895.32	890.46	885.6	880.75	875.9	871.05
x1 = 0.8578	901.48	896.64	891.8	886.96	882.12	877.28	872.44
x1 = 0.9324	902.74	897.93	893.12	888.31	883.5	878.69	873.88
x1 = 1	903.6	898.85	894.1	889.35	884.6	879.85	875.1
